Laboratory results published in the kinase profiling compilation of Christmann-Franck et al. (2016).

What was measured:
Experiment in all cases: radiometric filter-binding kinase assay
[1] = target: PLK1 (human) (UniProt P53350); conditions: compound 100.0 µM; ATP 5 µM
[2] = target: MAP2K1 (human) (UniProt Q02750); conditions: compound 100.0 µM; ATP 5 µM
[3] = target: PIM3 (human) (UniProt Q86V86); conditions: compound 100.0 µM; ATP 20 µM
[4] = target: MAPK13 (human) (UniProt O15264); conditions: compound 100.0 µM; ATP 5 µM
[5] = target: RIPK2 (human) (UniProt O43353); conditions: compound 100.0 µM; ATP 20 µM
[6] = target: INSR (human) (UniProt P06213); conditions: compound 100.0 µM; ATP 20 µM
[7] = target: IRAK4 (human) (UniProt Q9NWZ3); conditions: compound 100.0 µM; ATP 20 µM
[8] = target: CAMKK2 (human) (UniProt Q96RR4); conditions: compound 100.0 µM; ATP 20 µM
[9] = target: ABL1 (human) (UniProt P00519); conditions: compound 100.0 µM; ATP 5 µM
[10] = target: PAK7 (human) (UniProt Q9P286); conditions: compound 100.0 µM; ATP 20 µM
[11] = target: MAPK9 (human) (UniProt P45984); conditions: compound 100.0 µM; ATP 20 µM
[12] = target: PIM1 (human) (UniProt P11309); conditions: compound 100.0 µM; ATP 20 µM
[13] = target: NEK2 (human) (UniProt P51955); conditions: compound 100.0 µM; ATP 50 µM
[14] = target: RPS6KA5 KD1 KD2 (human) (UniProt O75582); conditions: compound 100.0 µM; ATP 20 µM
[15] = target: PRKCG (human) (UniProt P05129); conditions: compound 100.0 µM; ATP 20 µM
[16] = target: TEK (human) (UniProt Q02763); conditions: compound 100.0 µM; ATP 20 µM
[17] = target: PIM2 (human) (UniProt Q9P1W9); conditions: compound 100.0 µM; ATP 5 µM
[18] = target: JAK2 JH1 JH2 (human) (UniProt O60674); conditions: compound 100.0 µM; ATP 5 µM
[19] = target: MAPKAPK3 (human) (UniProt Q16644); conditions: compound 100.0 µM; ATP 20 µM
[20] = target: CaMK1 (human) (UniProt Q14012); conditions: compound 100.0 µM; ATP 50 µM
[21] = target: STK16 (human) (UniProt O75716); conditions: compound 100.0 µM; ATP 50 µM
[22] = target: DAPK1 (human) (UniProt P53355); conditions: compound 100.0 µM; ATP 5 µM
[23] = target: BTK (human) (UniProt Q06187); conditions: compound 100.0 µM; ATP 50 µM
[24] = target: MAPKAPK5 (human) (UniProt Q8IW41); conditions: compound 100.0 µM; ATP 20 µM
[25] = target: NUAK1 (human) (UniProt O60285); conditions: compound 100.0 µM; ATP 20 µM
[26] = target: BRSK1 (human) (UniProt Q8TDC3); conditions: compound 100.0 µM; ATP 20 µM
[27] = target: MAP3K7 TAB1 (human) (UniProt Q15750+O43318); conditions: compound 100.0 µM; ATP 5 µM
[28] = target: HIPK1 (human) (UniProt Q86Z02); conditions: compound 100.0 µM; ATP 20 µM
[29] = target: NTRK1 (human) (UniProt P04629); conditions: compound 100.0 µM; ATP 20 µM
[30] = target: STK3 (human) (UniProt Q13188); conditions: compound 100.0 µM; ATP 20 µM
[31] = target: MARK1 (human) (UniProt Q9P0L2); conditions: compound 100.0 µM; ATP 20 µM
[32] = target: EPHA4 (human) (UniProt P54764); conditions: compound 100.0 µM; ATP 50 µM
[33] = target: MKNK2 (human) (UniProt Q9HBH9); conditions: compound 100.0 µM; ATP 50 µM
[34] = target: MAP3K9 (human) (UniProt P80192); conditions: compound 100.0 µM; ATP 20 µM
[35] = target: PDPK1 (human) (UniProt O15530); conditions: compound 100.0 µM
[36] = target: YES1 (human) (UniProt P07947); conditions: compound 100.0 µM; ATP 20 µM

Sequence of NUAK1 (human) (O60285 whole entry, looked up): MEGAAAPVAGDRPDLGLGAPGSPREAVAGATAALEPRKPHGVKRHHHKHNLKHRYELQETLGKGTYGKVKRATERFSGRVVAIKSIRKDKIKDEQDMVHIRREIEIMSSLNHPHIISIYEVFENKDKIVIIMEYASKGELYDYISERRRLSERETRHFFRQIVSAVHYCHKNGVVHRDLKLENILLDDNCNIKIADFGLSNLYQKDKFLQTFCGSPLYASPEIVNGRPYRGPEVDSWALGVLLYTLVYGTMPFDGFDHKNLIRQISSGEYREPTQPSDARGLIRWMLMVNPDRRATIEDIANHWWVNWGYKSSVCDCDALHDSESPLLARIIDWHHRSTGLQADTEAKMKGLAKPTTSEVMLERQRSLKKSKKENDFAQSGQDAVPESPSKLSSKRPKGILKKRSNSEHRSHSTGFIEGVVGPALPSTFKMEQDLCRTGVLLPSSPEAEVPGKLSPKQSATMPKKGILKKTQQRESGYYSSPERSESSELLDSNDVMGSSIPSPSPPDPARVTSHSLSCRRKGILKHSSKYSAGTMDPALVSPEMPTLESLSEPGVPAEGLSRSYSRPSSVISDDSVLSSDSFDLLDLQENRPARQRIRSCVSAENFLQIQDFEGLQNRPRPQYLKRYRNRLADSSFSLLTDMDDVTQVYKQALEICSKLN
Sequence of PLK1 (human) (P53350 whole entry, looked up): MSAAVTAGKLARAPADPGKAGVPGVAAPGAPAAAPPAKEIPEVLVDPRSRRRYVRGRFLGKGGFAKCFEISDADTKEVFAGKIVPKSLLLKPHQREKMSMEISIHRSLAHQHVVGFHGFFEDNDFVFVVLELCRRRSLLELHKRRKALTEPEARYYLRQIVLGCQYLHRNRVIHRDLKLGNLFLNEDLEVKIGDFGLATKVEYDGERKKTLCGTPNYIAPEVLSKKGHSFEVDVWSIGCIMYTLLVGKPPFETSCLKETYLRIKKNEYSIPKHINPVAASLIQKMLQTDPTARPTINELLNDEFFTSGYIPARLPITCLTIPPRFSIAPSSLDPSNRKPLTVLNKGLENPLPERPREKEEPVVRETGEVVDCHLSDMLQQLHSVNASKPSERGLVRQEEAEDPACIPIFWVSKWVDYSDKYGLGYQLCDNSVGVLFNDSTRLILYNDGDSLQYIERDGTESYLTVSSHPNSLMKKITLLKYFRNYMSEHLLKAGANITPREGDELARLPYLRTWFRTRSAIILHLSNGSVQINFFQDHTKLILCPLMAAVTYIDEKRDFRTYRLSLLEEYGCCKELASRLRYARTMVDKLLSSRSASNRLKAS
Sequence of MKNK2 (human) (Q9HBH9 whole entry, looked up): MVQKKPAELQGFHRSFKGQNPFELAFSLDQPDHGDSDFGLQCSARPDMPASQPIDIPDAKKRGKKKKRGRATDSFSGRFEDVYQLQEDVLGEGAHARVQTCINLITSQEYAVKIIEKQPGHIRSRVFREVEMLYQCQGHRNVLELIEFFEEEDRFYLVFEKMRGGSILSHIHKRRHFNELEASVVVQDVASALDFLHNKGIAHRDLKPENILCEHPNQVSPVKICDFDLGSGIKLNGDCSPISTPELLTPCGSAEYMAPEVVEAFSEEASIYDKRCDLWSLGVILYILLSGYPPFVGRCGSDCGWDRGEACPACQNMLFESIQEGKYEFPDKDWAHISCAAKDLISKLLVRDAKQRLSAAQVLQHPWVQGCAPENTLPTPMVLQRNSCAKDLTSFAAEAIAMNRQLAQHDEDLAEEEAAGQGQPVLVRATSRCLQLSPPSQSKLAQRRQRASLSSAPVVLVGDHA
Sequence of TEK (human) (Q02763 whole entry, looked up): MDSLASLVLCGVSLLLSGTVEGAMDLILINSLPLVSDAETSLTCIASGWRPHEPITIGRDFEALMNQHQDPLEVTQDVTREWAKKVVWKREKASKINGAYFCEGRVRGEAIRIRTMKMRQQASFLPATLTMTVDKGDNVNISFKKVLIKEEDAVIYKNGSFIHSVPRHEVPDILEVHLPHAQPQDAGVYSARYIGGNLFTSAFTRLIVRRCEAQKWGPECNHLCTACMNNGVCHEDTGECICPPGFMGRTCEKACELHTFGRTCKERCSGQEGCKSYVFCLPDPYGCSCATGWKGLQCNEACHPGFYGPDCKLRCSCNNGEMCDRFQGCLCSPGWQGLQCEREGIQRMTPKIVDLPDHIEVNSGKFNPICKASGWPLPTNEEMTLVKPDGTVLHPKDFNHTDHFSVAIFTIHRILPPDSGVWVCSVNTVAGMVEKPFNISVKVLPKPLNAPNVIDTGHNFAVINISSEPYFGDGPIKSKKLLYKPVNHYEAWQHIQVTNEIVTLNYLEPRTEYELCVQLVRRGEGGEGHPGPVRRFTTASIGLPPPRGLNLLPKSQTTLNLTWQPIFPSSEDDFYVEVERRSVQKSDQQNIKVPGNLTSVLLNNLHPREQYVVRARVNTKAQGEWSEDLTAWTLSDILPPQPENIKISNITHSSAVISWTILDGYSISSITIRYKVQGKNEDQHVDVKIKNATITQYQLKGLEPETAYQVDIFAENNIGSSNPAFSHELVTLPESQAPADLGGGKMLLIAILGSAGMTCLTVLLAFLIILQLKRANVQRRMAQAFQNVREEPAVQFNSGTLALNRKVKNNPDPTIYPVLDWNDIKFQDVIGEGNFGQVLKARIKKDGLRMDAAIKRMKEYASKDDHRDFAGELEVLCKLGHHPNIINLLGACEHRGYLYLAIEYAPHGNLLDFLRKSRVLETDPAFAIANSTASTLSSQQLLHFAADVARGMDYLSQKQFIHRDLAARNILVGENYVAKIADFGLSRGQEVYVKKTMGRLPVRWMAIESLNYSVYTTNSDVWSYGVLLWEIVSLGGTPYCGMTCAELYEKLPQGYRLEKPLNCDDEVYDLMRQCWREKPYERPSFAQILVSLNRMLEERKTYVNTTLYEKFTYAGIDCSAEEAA
Sequence of PIM2 (human) (Q9P1W9 whole entry, looked up): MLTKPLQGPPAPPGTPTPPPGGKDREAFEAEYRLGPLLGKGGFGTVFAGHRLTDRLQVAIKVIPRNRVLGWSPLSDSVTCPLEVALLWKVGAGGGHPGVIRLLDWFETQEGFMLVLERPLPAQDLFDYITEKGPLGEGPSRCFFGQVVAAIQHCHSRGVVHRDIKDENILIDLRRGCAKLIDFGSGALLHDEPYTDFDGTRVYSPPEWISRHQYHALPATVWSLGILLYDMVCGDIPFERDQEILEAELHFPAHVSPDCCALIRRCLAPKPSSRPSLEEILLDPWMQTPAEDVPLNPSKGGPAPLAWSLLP
Sequence of MAPKAPK3 (human) (Q16644 whole entry, looked up): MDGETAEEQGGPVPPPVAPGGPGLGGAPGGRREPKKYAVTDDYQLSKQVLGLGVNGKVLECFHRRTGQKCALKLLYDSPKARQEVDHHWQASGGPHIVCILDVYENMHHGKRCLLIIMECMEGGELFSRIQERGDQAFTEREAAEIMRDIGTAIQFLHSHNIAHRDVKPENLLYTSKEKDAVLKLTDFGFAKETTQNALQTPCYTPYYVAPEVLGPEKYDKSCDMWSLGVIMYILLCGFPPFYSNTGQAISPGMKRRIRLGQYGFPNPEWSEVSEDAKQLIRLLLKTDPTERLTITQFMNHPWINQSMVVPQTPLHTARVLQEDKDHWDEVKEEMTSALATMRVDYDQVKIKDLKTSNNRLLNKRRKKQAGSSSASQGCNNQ
Sequence of RPS6KA5 KD1 KD2 (human) (O75582 whole entry, looked up): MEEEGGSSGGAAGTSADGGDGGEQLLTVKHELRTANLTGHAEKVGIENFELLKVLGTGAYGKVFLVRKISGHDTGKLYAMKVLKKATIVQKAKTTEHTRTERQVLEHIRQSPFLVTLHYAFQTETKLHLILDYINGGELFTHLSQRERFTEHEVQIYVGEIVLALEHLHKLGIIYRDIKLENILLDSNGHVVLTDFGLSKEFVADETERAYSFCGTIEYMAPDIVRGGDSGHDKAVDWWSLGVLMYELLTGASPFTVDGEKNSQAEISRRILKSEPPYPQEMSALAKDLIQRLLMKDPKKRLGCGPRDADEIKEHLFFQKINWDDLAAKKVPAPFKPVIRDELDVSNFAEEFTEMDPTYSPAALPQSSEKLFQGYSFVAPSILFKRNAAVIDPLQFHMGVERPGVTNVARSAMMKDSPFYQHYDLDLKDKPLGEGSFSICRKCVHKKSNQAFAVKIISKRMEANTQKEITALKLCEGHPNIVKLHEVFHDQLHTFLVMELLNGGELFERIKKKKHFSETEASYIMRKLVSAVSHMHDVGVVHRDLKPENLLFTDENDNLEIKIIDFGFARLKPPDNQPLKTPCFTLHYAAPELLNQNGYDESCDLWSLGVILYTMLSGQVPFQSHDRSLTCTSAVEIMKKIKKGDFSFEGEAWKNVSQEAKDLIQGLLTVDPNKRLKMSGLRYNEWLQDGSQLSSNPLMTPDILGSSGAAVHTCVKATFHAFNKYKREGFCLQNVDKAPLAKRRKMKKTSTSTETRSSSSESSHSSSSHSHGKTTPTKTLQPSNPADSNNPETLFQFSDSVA
Sequence of PIM1 (human) (P11309 whole entry, looked up): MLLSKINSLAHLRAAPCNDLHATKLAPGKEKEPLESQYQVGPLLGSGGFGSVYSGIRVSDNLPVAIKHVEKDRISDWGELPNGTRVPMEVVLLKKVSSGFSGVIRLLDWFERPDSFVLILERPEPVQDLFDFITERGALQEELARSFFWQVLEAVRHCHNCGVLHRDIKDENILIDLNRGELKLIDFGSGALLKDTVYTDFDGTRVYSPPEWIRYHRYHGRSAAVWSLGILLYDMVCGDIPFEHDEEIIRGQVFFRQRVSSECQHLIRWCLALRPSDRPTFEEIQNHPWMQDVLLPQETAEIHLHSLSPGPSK

Question: With CC(C)(C)Nc1c(C2CC2)nc2[nH]cnn12 as the compound, how does the inhibition [1] read?
Answer: 0%

Question: And the inhibition [2]?
Answer: 0%

Question: What about the inhibition [3] of the same compound?
Answer: 0%

Question: What about the inhibition [4] of the same compound?
Answer: 0%

Question: What about the inhibition [5] of the same compound?
Answer: 0%

Question: What about the inhibition [6] of the same compound?
Answer: 0%

Question: What about the inhibition [7] of the same compound?
Answer: 0%

Question: And the inhibition [8]?
Answer: 34%

Question: What about the inhibition [9] of the same compound?
Answer: 0%

Question: And the inhibition [10]?
Answer: 18%

Question: What about the inhibition [11] of the same compound?
Answer: 3%

Question: And the inhibition [12]?
Answer: 11%

Question: And the inhibition [13]?
Answer: 0%

Question: What about the inhibition [14] of the same compound?
Answer: 0%

Question: And the inhibition [15]?
Answer: 9%

Question: And the inhibition [16]?
Answer: 9%

Question: And the inhibition [17]?
Answer: 15%

Question: What about the inhibition [18] of the same compound?
Answer: 3%

Question: And the inhibition [19]?
Answer: 10%

Question: And the inhibition [20]?
Answer: 22%

Question: What about the inhibition [21] of the same compound?
Answer: 0%

Question: What about the inhibition [22] of the same compound?
Answer: 0%

Question: And the inhibition [23]?
Answer: 6%

Question: What about the inhibition [24] of the same compound?
Answer: 13%

Question: And the inhibition [25]?
Answer: 24%

Question: What about the inhibition [26] of the same compound?
Answer: 0%

Question: And the inhibition [27]?
Answer: 3%

Question: And the inhibition [28]?
Answer: 6%

Question: And the inhibition [29]?
Answer: 27%

Question: And the inhibition [30]?
Answer: 0%

Question: And the inhibition [31]?
Answer: 0%

Question: What about the inhibition [32] of the same compound?
Answer: 9%

Question: And the inhibition [33]?
Answer: 9%

Question: And the inhibition [34]?
Answer: 0%

Question: What about the inhibition ([35]; ATP 20 µM) of the same compound?
Answer: 3%

Question: What about the inhibition ([35]; ATP 50 µM) of the same compound?
Answer: 11%

Question: And the inhibition [36]?
Answer: 0%

Question: How did the inhibition [1] turn out when CC(C)(C)Nc1c(COCc2ccccc2)nc2[nH]cnn12 was run?
Answer: 0%

Question: And the inhibition [2]?
Answer: 0%

Question: And the inhibition [3]?
Answer: 18%

Question: What about the inhibition [4] of the same compound?
Answer: 0%

Question: What about the inhibition [5] of the same compound?
Answer: 13%

Question: What about the inhibition [6] of the same compound?
Answer: 4%

Question: And the inhibition [7]?
Answer: 0%

Question: What about the inhibition [8] of the same compound?
Answer: 28%

Question: What about the inhibition [9] of the same compound?
Answer: 11%

Question: What about the inhibition [10] of the same compound?
Answer: 0%

Question: What about the inhibition [11] of the same compound?
Answer: 10%

Question: And the inhibition [12]?
Answer: 30%

Question: And the inhibition [13]?
Answer: 6%

Question: What about the inhibition [14] of the same compound?
Answer: 0%

Question: And the inhibition [15]?
Answer: 8%

Question: What about the inhibition [16] of the same compound?
Answer: 0%

Question: And the inhibition [17]?
Answer: 16%

Question: And the inhibition [18]?
Answer: 11%

Question: And the inhibition [19]?
Answer: 38%

Question: What about the inhibition [20] of the same compound?
Answer: 83%

Question: What about the inhibition [21] of the same compound?
Answer: 0%

Question: And the inhibition [22]?
Answer: 14%

Question: What about the inhibition [23] of the same compound?
Answer: 51%

Question: And the inhibition [24]?
Answer: 44%

Question: What about the inhibition [25] of the same compound?
Answer: 20%

Question: What about the inhibition [26] of the same compound?
Answer: 0%

Question: What about the inhibition [27] of the same compound?
Answer: 31%

Question: What about the inhibition [28] of the same compound?
Answer: 0%

Question: What about the inhibition [29] of the same compound?
Answer: 6%

Question: What about the inhibition [30] of the same compound?
Answer: 0%

Question: What about the inhibition [31] of the same compound?
Answer: 0%

Question: What about the inhibition [32] of the same compound?
Answer: 4%

Question: What about the inhibition [33] of the same compound?
Answer: 0%

Question: And the inhibition [34]?
Answer: 14%

Question: And the inhibition ([35]; ATP 20 µM)?
Answer: 13%

Question: And the inhibition ([35]; ATP 50 µM)?
Answer: 8%

Question: And the inhibition [36]?
Answer: 4%

Question: Which inhibition [1] does the source give for O=c1cc(-c2ccccc2F)nc2[nH]ccn12 here?
Answer: 8%

Question: What about the inhibition [2] of the same compound?
Answer: 43%

Question: And the inhibition [3]?
Answer: 83%

Question: And the inhibition [4]?
Answer: 0%

Question: And the inhibition [5]?
Answer: 57%

Question: And the inhibition [6]?
Answer: 6%

Question: What about the inhibition [7] of the same compound?
Answer: 40%

Question: What about the inhibition [8] of the same compound?
Answer: 0%

Question: And the inhibition [9]?
Answer: 3%

Question: And the inhibition [10]?
Answer: 0%

Question: And the inhibition [11]?
Answer: 10%

Question: And the inhibition [12]?
Answer: 67%

Question: And the inhibition [13]?
Answer: 29%

Question: And the inhibition [14]?
Answer: 21%

Question: And the inhibition [15]?
Answer: 7%

Question: And the inhibition [16]?
Answer: 0%

Question: What about the inhibition [17] of the same compound?
Answer: 17%

Question: And the inhibition [18]?
Answer: 25%

Question: What about the inhibition [19] of the same compound?
Answer: 15%

Question: And the inhibition [20]?
Answer: 9%

Question: What about the inhibition [21] of the same compound?
Answer: 15%

Question: What about the inhibition [22] of the same compound?
Answer: 5%

Question: What about the inhibition [23] of the same compound?
Answer: 49%

Question: And the inhibition [24]?
Answer: 13%

Question: What about the inhibition [25] of the same compound?
Answer: 6%

Question: What about the inhibition [26] of the same compound?
Answer: 44%

Question: And the inhibition [27]?
Answer: 37%

Question: And the inhibition [28]?
Answer: 30%

Question: What about the inhibition [29] of the same compound?
Answer: 50%

Question: And the inhibition [30]?
Answer: 27%

Question: What about the inhibition [31] of the same compound?
Answer: 5%

Question: And the inhibition [32]?
Answer: 16%

Question: And the inhibition [33]?
Answer: 26%

Question: And the inhibition [34]?
Answer: 0%

Question: And the inhibition ([35]; ATP 20 µM)?
Answer: 2%

Question: What about the inhibition ([35]; ATP 50 µM) of the same compound?
Answer: 15%

Question: What about the inhibition [36] of the same compound?
Answer: 33%

Question: What does the source list for O=C(Nc1cnc2[nH]ccn2c1=O)c1ccccc1?
Answer: inhibition [1]: 10%; inhibition [2]: 24%; inhibition [3]: 0%; inhibition [4]: 0%; inhibition [5]: 16%; inhibition [6]: 11%; inhibition [7]: 19%; inhibition [8]: 0%; inhibition [9]: 4%; inhibition [10]: 3%; inhibition [11]: 11%; inhibition [12]: 0%; inhibition [13]: 6%; inhibition [14]: 4%; inhibition [15]: 0%; inhibition [16]: 0%; inhibition [17]: 9%; inhibition [18]: 9%; inhibition [19]: 33%; inhibition [20]: 11%; inhibition [21]: 21%; inhibition [22]: 16%; inhibition [23]: 14%; inhibition [24]: 17%; inhibition [25]: 0%; inhibition [26]: 14%; inhibition [27]: 26%; inhibition [28]: 24%; inhibition [29]: 39%; inhibition [30]: 21%; inhibition [31]: 16%; inhibition [32]: 16%; inhibition [33]: 25%; inhibition [34]: 2%; inhibition ([35]; ATP 20 µM): 14%; inhibition ([35]; ATP 50 µM): 4%; inhibition [36]: 11%
